This note sets out measurements from ChEMBL document CHEMBL3046010, “Synthesis and pharmacological evaluation of 4-[2-hydroxy-3-(4-phenyl-piperazin-1-yl)-propoxy]-4-azatricyclo[5.2.1.02,6]dec-8-ene-3,5-dione” (Med Chem Res, 2008).

Structures are written as SMILES.

Common to all, as to type: tissue-based
In assay [1] the target is 5-hydroxytryptamine receptor 2A (Rattus norvegicus, UniProt P14842). Briefly: Displacement of [3H]Ketanserin from 5HT2A receptor in Rattus norvegicus (rat) cerebral cortex by filter binding assay. A general note: Loss of bound radioactivity is the signal in a displacement assay; it reports binding, not function.
Sequence of 5-hydroxytryptamine receptor 2A (P14842 whole entry): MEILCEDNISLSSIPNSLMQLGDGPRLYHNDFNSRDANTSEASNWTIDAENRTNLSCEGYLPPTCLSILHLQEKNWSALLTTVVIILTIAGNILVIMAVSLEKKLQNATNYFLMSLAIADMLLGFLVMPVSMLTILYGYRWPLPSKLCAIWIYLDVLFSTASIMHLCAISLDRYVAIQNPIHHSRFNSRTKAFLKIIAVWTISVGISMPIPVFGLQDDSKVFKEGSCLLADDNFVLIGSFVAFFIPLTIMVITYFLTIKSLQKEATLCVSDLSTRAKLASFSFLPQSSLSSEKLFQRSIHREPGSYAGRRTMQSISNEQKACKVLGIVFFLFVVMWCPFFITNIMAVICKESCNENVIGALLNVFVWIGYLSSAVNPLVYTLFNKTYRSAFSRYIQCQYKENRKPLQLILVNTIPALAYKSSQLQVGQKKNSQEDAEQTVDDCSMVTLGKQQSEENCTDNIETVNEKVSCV
In assay [2] the target is T1, 5-hydroxytryptamine receptor 1A (Rattus norvegicus, UniProt P19327).
T1 sequence (P19327 whole entry): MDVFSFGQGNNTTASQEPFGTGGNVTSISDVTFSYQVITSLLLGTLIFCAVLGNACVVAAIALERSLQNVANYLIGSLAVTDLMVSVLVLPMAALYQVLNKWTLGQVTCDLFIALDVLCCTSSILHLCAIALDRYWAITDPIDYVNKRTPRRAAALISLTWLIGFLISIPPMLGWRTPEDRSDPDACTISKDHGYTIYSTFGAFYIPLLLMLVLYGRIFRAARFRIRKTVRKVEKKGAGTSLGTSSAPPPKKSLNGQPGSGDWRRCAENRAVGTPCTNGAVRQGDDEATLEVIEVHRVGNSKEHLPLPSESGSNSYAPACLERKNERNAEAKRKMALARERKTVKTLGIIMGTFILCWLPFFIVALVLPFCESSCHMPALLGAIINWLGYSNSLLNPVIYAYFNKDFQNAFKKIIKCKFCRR
In words: Displacement of [3H]8-OH-DPAT from 5HT1A receptor in Rattus norvegicus (rat) cerebral cortex after 15 min by filter binding assay.

For assay [3], the target named is Beta-1 adrenergic receptor (Rattus norvegicus, UniProt P18090). Briefly: Displacement of [3H]CGP12177 from beta1 adrenoreceptor in Rattus norvegicus (rat) cerebral cortex by liquid scintillation counting.
Sequence of Beta-1 adrenergic receptor (P18090 whole entry): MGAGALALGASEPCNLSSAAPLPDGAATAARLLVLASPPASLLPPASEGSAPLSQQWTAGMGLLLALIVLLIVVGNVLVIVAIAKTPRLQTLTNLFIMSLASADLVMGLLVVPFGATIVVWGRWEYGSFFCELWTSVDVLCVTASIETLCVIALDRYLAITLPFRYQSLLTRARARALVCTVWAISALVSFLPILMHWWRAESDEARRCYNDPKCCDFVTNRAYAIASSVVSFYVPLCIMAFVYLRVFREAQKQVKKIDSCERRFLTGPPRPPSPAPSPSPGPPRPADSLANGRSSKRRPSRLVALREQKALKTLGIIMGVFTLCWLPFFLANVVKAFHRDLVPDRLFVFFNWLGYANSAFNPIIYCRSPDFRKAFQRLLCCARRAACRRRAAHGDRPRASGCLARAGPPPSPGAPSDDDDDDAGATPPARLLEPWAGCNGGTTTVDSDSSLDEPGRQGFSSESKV

As for `O=C1C2C3C=CC(C3)C2C(=O)N1OCC(O)CN1CCN(c2ccccc2)CC1` (stereo not drawn), the Ki in assay [1] stood at 336 nM; in assay [2], 370 nM; in assay [3] it was 38500 nM.

As a reminder, the Ki is a measure of affinity in units of concentration, obtained from inhibition or displacement. Higher therefore signals weaker binding.
